Patent publication US20200288711A1, “Pyrimidin-4-Carbamate or Urea Derivatives As Herbicides” (Syngenta Participations AG, priority 2017, published 2020)

Key:
Format in all cases: in vivo
Lolium perenne (LOLPE) [1] = assay: B1 pre-emergence herbicidal activity; set-up: key: 5=total damage to plant; 0=no damage to plant; settings: Test 1b, rate 1000 g/ha, evaluated after 13 days, score 0-5 (5=total damage, 0=no damage)
Experimental: (§1) Seeds of a variety of test species were sown in standard soil in pots: Triticum aestivium (TRZAW), Avena fatua (AVEFA), Alopecurus myosuroides (ALOMY), Echinochloa crus-galli (ECHCG), Lolium perenne (LOLPE), Zea mays (ZEAMX), Abutilon theophrasti (ABUTH), Amaranthus retroflexus (AMARE) and Setaria faberi (SETFA). After cultivation for one day (pre-emergence) under controlled conditions in a glasshouse (at 24/16° C., day/night; 14 hours light; 65% humidity), the plants were sprayed with an aqueous spray solution derived from the formulation of the technical active ingredient in acetone/water (50:50) solution containing 0.5% Tween 20 (polyoxyethelyene sorbitan monolaurate, CAS RN 9005-64-5). The test plants were then grown in a glasshouse under controlled conditions (at 24/16° C., day/night; 14 hours light; 65% humidity) and watered twice daily. After 13 days, the test was evaluated (5=total damage to plant; 0=no damage to plant).

[2] = test system: Alopecurus myosuroides (ALOMY); assay: B1 pre-emergence herbicidal activity; set-up: key: 5=total damage to plant; 0=no damage to plant; settings: Test 1b, rate 1000 g/ha, evaluated after 13 days, score 0-5 (5=total damage, 0=no damage)
Experimental: as §1

Avena fatua (AVEFA) [3] = assay: B1 pre-emergence herbicidal activity; set-up: key: 5=total damage to plant; 0=no damage to plant; settings: Test 1b, rate 1000 g/ha, evaluated after 13 days, score 0-5 (5=total damage, 0=no damage)
Experimental: as §1

[4] = test system: Triticum aestivium (TRZAW); assay: B1 pre-emergence herbicidal activity; set-up: key: 5=total damage to plant; 0=no damage to plant; settings: Test 1b, rate 1000 g/ha, evaluated after 13 days, score 0-5 (5=total damage, 0=no damage)
Experimental: as §1

Setaria faberi (SETFA) [5] = assay: B1 pre-emergence herbicidal activity; set-up: key to Pre-emergence herbicidal activity, SETFA: 5=total damage to plant; 0=no damage to plant; settings: Test 1b, rate 1000 g/ha, evaluated after 13 days, score 0-5 (5=total damage, 0=no damage)
Experimental: as §1

Lolium perenne (LOLPE) [6] = assay: B2 post-emergence herbicidal activity; set-up: key: 5=total damage to plant; 0=no damage to plant; settings: Test 2b, rate 1000 g/ha, evaluated after 13 days, score 0-5 (5=total damage, 0=no damage)
Experimental: (§2) Seeds of a variety of test species were sown in standard soil in pots: Triticum aestivium (TRZAW), Avena fatua (AVEFA), Alopecurus myosuroides (ALOMY), Echinochloa crus-galli (ECHCG), Lolium perenne (LOLPE), Zea mays (ZEAMX), Abutilon theophrasti (ABUTH), Amaranthus retroflexus (AMARE) and Setaria faberi (SETFA). After 8 days cultivation (post-emergence) under controlled conditions in a glasshouse (at 24/16° C., day/night; 14 hours light; 65% humidity), the plants were sprayed with an aqueous spray solution derived from the formulation of the technical active ingredient in acetone/water (50:50) solution containing 0.5% Tween 20 (polyoxyethelyene sorbitan monolaurate, CAS RN 9005-64-5). The test plants were then grown in a glasshouse under controlled conditions (at 24/16° C., day/night; 14 hours light; 65% humidity) and watered twice daily. After 13 days, the test was evaluated (5=total damage to plant; 0=no damage to plant).

[7] = test system: Echinochloa crus-galli (ECHCG); assay: B2 post-emergence herbicidal activity; set-up: key: 5=total damage to plant; 0=no damage to plant; settings: Test 2b, rate 1000 g/ha, evaluated after 13 days, score 0-5 (5=total damage, 0=no damage)
Experimental: as §2

Setaria faberi (SETFA) [8] = assay: B2 post-emergence herbicidal activity; set-up: key: 5=total damage to plant; 0=no damage to plant; settings: Test 2b, rate 1000 g/ha, evaluated after 13 days, score 0-5 (5=total damage, 0=no damage)
Experimental: as §2

[9] = test system: Alopecurus myosuroides (ALOMY); assay: B2 post-emergence herbicidal activity; set-up: key: 5=total damage to plant; 0=no damage to plant; settings: Test 2b, rate 1000 g/ha, evaluated after 13 days, score 0-5 (5=total damage, 0=no damage)
Experimental: as §2

Avena fatua (AVEFA) [10] = assay: B2 post-emergence herbicidal activity; set-up: key: 5=total damage to plant; 0=no damage to plant; settings: Test 2b, rate 1000 g/ha, evaluated after 13 days, score 0-5 (5=total damage, 0=no damage)
Experimental: as §2

[11] = test system: Triticum aestivium (TRZAW); assay: B2 post-emergence herbicidal activity; set-up: key: 5=total damage to plant; 0=no damage to plant; settings: Test 2b, rate 1000 g/ha, evaluated after 13 days, score 0-5 (5=total damage, 0=no damage)
Experimental: as §2

[12] = test system: Echinochloa crus-galli (ECHCG); assay: B1 pre-emergence herbicidal activity; set-up: key to Pre-emergence herbicidal activity, ECHCG: 5=total damage to plant; 0=no damage to plant; settings: Test 1b, rate 1000 g/ha, evaluated after 13 days, score 0-5 (5=total damage, 0=no damage)
Experimental: as §1

SMILES	Pre-emergence herbicidal activity, LOLPE (Lolium perenne (LOLPE) [1])	Pre-emergence herbicidal activity, ALOMY [2]	Pre-emergence herbicidal activity, AVEFA (Avena fatua (AVEFA) [3])	Pre-emergence herbicidal activity, TRAZW [4]	Pre-emergence herbicidal activity, SETFA (Setaria faberi (SETFA) [5])	Control of weed species after post-emergence application, LOLPE (Lolium perenne (LOLPE) [6])	Control of weed species after post-emergence application, ECHCG [7]	Control of weed species after post-emergence application, SETFA (Setaria faberi (SETFA) [8])	Control of weed species after post-emergence application, ALOMY [9]	Control of weed species after post-emergence application, AVEFA (Avena fatua (AVEFA) [10])	Control of weed species after post-emergence application, TRAZW [11]	Pre-emergence herbicidal activity, ECHCG [12]
Cc1nc(-c2cncnc2)ncc1N(C)C(=O)OC(C)(C)C [Compound E3]	1	1	4	0	4	3	4	5	2	4	1	4
CC(C)(C)OC(=O)Nc1cnc(-c2cncc(F)c2)nc1C(F)(F)F [Compound E4, tert-butyl N-[2-(5-fluoro-3-pyridyl)-4-(trifluoromethyl)pyrimidin-5-yl]carbamate]	1	0	4	0	4	3	4	5	1	4	1	4
CN(C(=O)OC(C)(C)C)c1cnc(-c2cncc(F)c2)nc1C(F)(F)F [Compound E5]	1	0	3	0	5	2	4	5	0	4	0	3
C=CCN(C(=O)OC(C)(C)C)c1cnc(-c2cncnc2)nc1C [Compound E6]	1	0	1	0	5	1	3	5	1	2	1	3
Cc1nc(-c2cncnc2)ncc1NC(=O)OC(C)(C)C [Compound E7, tert-butyl N-(4-methyl-2-pyrimidin-5-yl-pyrimidin-5-yl)carbamate]	1	0	2	0	4	2	4	4	0	3	0	5
O=C(Nc1cnc(-c2cncc(F)c2)nc1C(F)(F)F)N1CCOCC1 [Compound E8, N-[2-(5-fluoro-3-pyridyl)-4-(trifluoromethyl)pyrimidin-5-yl]morpholine-4-carboxamide]	1	0	2	0	4	3	4	5	1	3	1	3
CN1CCN(c2cnc(-c3cncc(F)c3)nc2C(F)(F)F)C1=O [Compound E9, 1-[2-(5-fluoro-3-pyridyl)-4-(trifluoromethyl)pyrimidin-5-yl]-3-methyl-imidazolidin-2-one]	1	0	1	0	2	1	4	3	0	2	1	1
CCCOC(=O)Nc1cnc(-c2cncc(F)c2)nc1C(F)(F)F [Compound E10]	1	0	2	0		1	4	5	0	3	1	4
CC(C)(C)OC(=O)Nc1cnc(-c2cncnc2)nc1C(F)(F)F [Compound E11]	1	1	2	0	4	2	4	4	0	3	1	3
CC(C)(C)OC(=O)Nc1cnc(-c2cncc(C#N)c2)nc1C(F)(F)F [Compound E12, tert-butyl N-[2-(5-cyano-3-pyridyl)-4-(trifluoromethyl)pyrimidin-5-yl]carbamate]	0	0	0	0	4	1	2	5	0	2	0	3
